Several values for one entry are separate records, joined by “and”; a condition that tells them apart may be missing. Equal entries are not always repeated. Where two headings read alike, the source gives them in different places.
Key:
[1] = Stability of spiked rat plasma QC samples under storage conditions; assay type: in vitro ADME; conditions: for Stability, Accuracy (%): rat plasma, mean ± SD, n = 3; for stability of rat plasma samples under storage conditions: room temperature 4 h, 4 °C 8 h, −40 °C 7 days, three freeze–thaw cycles
[2] = Pharmacokinetic study in rats after oral and intratracheal administration of curcumin (plasma, LC-MS/MS); assay type: in vivo, Sprague-Dawley rats
Experimental: This preparation was then diluted with saline to obtain the desired concentrations for animal experiments.
Twelve male SD rats were randomly divided into two groups with six rats each, one for oral administration and the other for inhalation administration. […] Blood samples of approximately 200 μL were collected via intravenous routes at pre-determined time points: before administration and at 5, 15, 30, and 45 min, and 1, 2, 4, 6, and 8 h post-administration. The blood samples were immediately placed in heparinized EP tubes and kept on ice. […] The specific method of intratracheal administration is depicted in Figure 1, and details of the administration process are provided in the Supplementary Materials (Supplementary Figure S2). Blood samples of about 200 μL were collected at time points before administration and at 2, 5, 15, and 30 min, and 1, 2, 4, 6, 8, 12, and 24 h post-administration, also placed in heparinized EP tubes and kept on ice. The whole blood samples were centrifuged at 4 °C at 5000× g for 10 min within 30 min of collection. The plasma was then separated, aliquoted, and stored at −40 °C until analysis.
The major pharmacokinetic parameters including elimination half-life (t1/2), time to reach peak concentration (Tmax), peak concentration (Cmax), area under the curve (AUC), and mean residence time (MRT) were calculated using Phoenix WinNonlin software (Version 8.2, Certara, Radnor, PA, USA). A non-compartmental model was employed for these calculations, which is suitable for analyzing drug concentration data over time without assuming a specific compartmental structure. Graph Prism 8 was utilized to create graphs and plots that illustrate the pharmacokinetic behavior of the compounds of interest. Statistical analysis was performed using IBM SPSS Statistics 26 to conduct a t-test on the dose-normalized AUC(0−t) values from the two different administration groups. […] The results were considered statistically significant at a p-value less than 0.05, indicating a difference between the groups.

Caco-2 cell model = conditions: cited from earlier work
[3] = oral curcumin in rats; cited from earlier work
[4] = 6 ng/mL, freeze-thaw three cycles
[5] = 6 ng/mL, room temperature for 4 h
[6] = 60 ng/mL, freeze-thaw three cycles
[7] = 60 ng/mL, room temperature for 4 h
[8] = 320 ng/mL, freeze-thaw three cycles
[9] = 320 ng/mL, room temperature for 4 h
[10] = rat plasma, i.t. curcumin 10 mg/kg (27.17 μmol/kg), mean ± SD, n = 6
[11] = rat plasma, i.t. curcumin 10 mg/kg, dose-normalized to oral dose (inhalation/0.5)
[12] = rat plasma, p.o. curcumin 20 mg/kg (54.34 μmol/kg), mean ± SD, n = 6
[13] = male, Sprague-Dawley, rat, plasma, inhaled or intranasal, 10 mg/kg

COc1cc(/C=C/C(=O)CC(=O)/C=C/c2ccc(OS(=O)(=O)O)c(OC)c2)ccc1O [COS]
Stability, Accuracy (%) ([1]; 6 ng/mL, 4 ℃ for 8 h): 100.63±2.40%
Stability, Accuracy (%) ([1]; 6 ng/mL, 40 ℃ for 7 d): 90.73±1.36%
Stability, Accuracy (%) [1, 4]: 93.73±4.97%
Stability, Accuracy (%) [1, 5]: 99.67±4.83%
Stability, Accuracy (%) ([1]; 60 ng/mL, 4 ℃ for 8 h): 93.27±2.31%
Stability, Accuracy (%) ([1]; 60 ng/mL, 40 ℃ for 7 d): 94.53±0.40%
Stability, Accuracy (%) [1, 6]: 93.23±0.96%
Stability, Accuracy (%) [1, 7]: 96.63±1.39%
Stability, Accuracy (%) ([1]; 320 ng/mL, 4 ℃ for 8 h): 99.23±1.50%
Stability, Accuracy (%) ([1]; 320 ng/mL, 40 ℃ for 7 d): 92.43±5.58%
Stability, Accuracy (%) [1, 8]: 93.80±0.46%
Stability, Accuracy (%) [1, 9]: 100.77±0.65%
stability of rat plasma samples under storage conditions [1]: stable
exposure, AUC(0–t)/0.5 intratracheal relative to AUC(0–t) oral ([2]; rat plasma, i.t. 10 mg/kg dose-normalized vs p.o. 20 mg/kg): ~50 fold
AUC(0–t) [2, 10]: 1377 ± 604.3 nM·h
AUC(0–∞) [2, 10]: 1444 ± 624.9 nM·h
Cmax [2, 10]: 0.416 ± 0.138 µM
MRT(0–t) [2, 10]: 5.14 ± 1.03 h
Tmax [2, 10]: 0.38 ± 0.14 h
t1/2 [2, 10]: 5.02 ± 1.27 h
AUC(0–t)/0.5 [2, 11]: 2754 ± 1208 nM·h
AUC(0–t) [2, 12]: 49.78 ± 27.14 nM·h
AUC(0–∞) [2, 12]: 57.70 ± 27.78 nM·h
Cmax [2, 12]: 0.0234 ± 0.0094 µM
MRT(0–t) [2, 12]: 2.37 ± 0.98 h
Tmax [2, 12]: 1.13 ± 0.96 h
t1/2 [2, 12]: 1.11 ± 0.87 h

COc1cc(/C=C/C(=O)CC(=O)/C=C/c2ccc(O[C@@H]3O[C@H](C(=O)O)[C@@H](O)[C@H](O)[C@H]3O)c(OC)c2)ccc1O [COG]
Stability, Accuracy (%) ([1]; 6 ng/mL, 4 ℃ for 8 h): 88.10±4.59%
Stability, Accuracy (%) ([1]; 6 ng/mL, 40 ℃ for 7 d): 104.10±7.03%
Stability, Accuracy (%) [1, 4]: 89.23±3.79%
Stability, Accuracy (%) [1, 5]: 90.20±4.16%
Stability, Accuracy (%) ([1]; 60 ng/mL, 4 ℃ for 8 h): 90.43±2.97%
Stability, Accuracy (%) ([1]; 60 ng/mL, 40 ℃ for 7 d): 87.13±2.10%
Stability, Accuracy (%) [1, 6]: 87.93±2.81%
Stability, Accuracy (%) [1, 7]: 95.53±2.01%
Stability, Accuracy (%) ([1]; 320 ng/mL, 4 ℃ for 8 h): 93.60±2.52%
Stability, Accuracy (%) ([1]; 320 ng/mL, 40 ℃ for 7 d): 88.93±0.99%
Stability, Accuracy (%) [1, 8]: 87.87±2.32%
Stability, Accuracy (%) [1, 9]: 95.73±2.23%
stability of rat plasma samples under storage conditions [1]: stable
AUC(0–t) [2, 10]: 886.3 ± 178.3 nM·h
AUC(0–∞) [2, 10]: 918.9 ± 167.8 nM·h
Cmax [2, 10]: 0.521 ± 0.203 µM
MRT(0–t) [2, 10]: 4.33 ± 1.69 h
Tmax [2, 10]: 0.25 ± 0.00 h
t1/2 [2, 10]: 3.10 ± 0.95 h
AUC(0–t)/0.5 [2, 11]: 1772 ± 356.6 nM·h
exposure relative to COS ([2]; rat plasma, oral dosing of 20 mg/kg curcumin): 30–40 times
AUC(0–t) [2, 12]: 1680 ± 244.1 nM·h
AUC(0–∞) [2, 12]: 1730 ± 256.5 nM·h
Cmax [2, 12]: 0.83 ± 0.158 µM
MRT(0–t) [2, 12]: 2.54 ± 0.29 h
Tmax [2, 12]: 0.54 ± 0.71 h
t1/2 [2, 12]: 1.74 ± 0.57 h

COc1cc(/C=C/C(=O)CC(=O)/C=C/c2ccc(O)c(OC)c2)ccc1O [CUR, Curcumin]
Stability, Accuracy (%) ([1]; 6 ng/mL, 4 ℃ for 8 h): 96.00±2.57%
Stability, Accuracy (%) ([1]; 6 ng/mL, 40 ℃ for 7 d): 105.13±4.11%
Stability, Accuracy (%) [1, 4]: 102.33±7.46%
Stability, Accuracy (%) [1, 5]: 92.53±2.91%
Stability, Accuracy (%) ([1]; 60 ng/mL, 4 ℃ for 8 h): 97.73±0.83%
Stability, Accuracy (%) ([1]; 60 ng/mL, 40 ℃ for 7 d): 97.40±0.36%
Stability, Accuracy (%) [1, 6]: 95.20±2.19%
Stability, Accuracy (%) [1, 7]: 98.57±2.22%
Stability, Accuracy (%) ([1]; 320 ng/mL, 4 ℃ for 8 h): 102.67±0.06%
Stability, Accuracy (%) ([1]; 320 ng/mL, 40 ℃ for 7 d): 93.87±3.21%
Stability, Accuracy (%) [1, 8]: 90.10±4.20%
Stability, Accuracy (%) [1, 9]: 103.93±1.07%
Papp (Caco-2 cell model): 3.18 ± 1.08 × 10^−6 cm/s
AUC(0-inf) [2, 13]: 1380 ± 370 nM·h
Cmax [2, 13]: 2.88 ± 0.742 µM
half-life [2, 13]: 3.73 ± 1.03 h
AUC(0-t) ([2]; male, Sprague-Dawley, rat, plasma, inhaled or intranasal, 10 mg/kg, rat plasma, i.t. curcumin 10 mg/kg (27.17 μmol/kg), mean ± SD, n = 6, read-out: AUC(0–t)): 1330 ± 374 nM·h
AUC(0-t) ([2]; male, Sprague-Dawley, rat, plasma, inhaled or intranasal, 10 mg/kg, rat plasma, i.t. curcumin 10 mg/kg, dose-normalized to oral dose (inhalation/0.5), read-out: AUC(0–t)/0.5): 2650 ± 749 nM·h
MRT last ([2]; male, Sprague-Dawley, rat, plasma, inhaled or intranasal, 10 mg/kg, read-out: MRT(0–t)): 2.01 ± 0.78 h
Tmax ([2]; male, Sprague-Dawley, rat, plasma, inhaled or intranasal, 10 mg/kg, read-out: Tmax): 0.05 ± 0.03 h
AUC(0-t) ([2]; male, Sprague-Dawley, rat, plasma, po, 20 mg/kg, rat plasma, p.o. curcumin 20 mg/kg, calculated using the lower limit of quantification over 6 h, read-out: AUC(0–t)): < 32.6 nM·h
plasma levels of the parent compound (below lower limit of quantification) ([2]; rat plasma, oral dosing of 20 mg/kg curcumin, 20 mg/kg): < 2 ng/mL and < 5.434 nM
bioavailability [3]: less than 1%

Reference: publication PMC11597260 (Pharmaceutics, 2024)
